Source: PubChem BioAssay AID2202554 (NIEHS Division of Translational Toxicology (DTT))
Records with an inconclusive call do not appear. Active and inactive are the calls of the source. No rule for the calls is given here.

The molecules below were run on S. typhimurium/E. coli reverse mutation, colony counts (assay: Bacterial reverse mutation test (aka Ames test) summary data).
How it was run: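 Revertant colony counts on plates, compared with untreated controls, after about two days of growth. Exposure with or without liver S9 (rat/hamster/mouse), dose range per strain, 20-min 37° C preincubation or direct plate incorporation. Strains: his⁻ Salmonella, trp⁻ E. coli WP2 uvrA pKM101.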

SMILES	outcome
COC(=O)[C@H]1[C@H]2C[C@@H]3c4[nH]c5cc(OC)ccc5c4CCN3C[C@H]2C[C@@H](OC(=O)c2cc(OC)c(OC)c(OC)c2)[C@@H]1OC	inactive; negative
C(CCOCC1CO1)COCC1CO1 (stereo not drawn)	active; positive
CCCN(CCC)C(=O)CN	active; positive
Cc1ccccc1C#N	inactive; negative
CCOc1ccc(NC(C)=O)cc1N	active; positive
CC(=O)c1c(C)c([N+](=O)[O-])c(C(C)(C)C)c([N+](=O)[O-])c1C	inactive; negative
Oc1c(Cl)c(Cl)cc(Cl)c1Cl	inactive; negative
CCCCCC	inactive; negative
[Cd+2].[Cl-].[Cl-]	inactive; negative
c1ccc2c(c1)-c1cccc3c1c-2cc1ccccc13	active; positive
CCC=C1OC(=O)c2ccccc21	active; positive
C=COC(C)=O	inactive; negative
CCC(Br)(CC)C(=O)NC(N)=O	inactive; negative
C=C(C)C#N	inactive; negative
COc1cc([C@H]2Oc3cc([C@H]4Oc5cc(O)cc(O)c5C(=O)[C@@H]4O)ccc3O[C@@H]2CO)ccc1O	inactive; negative
O=S(=O)(O)c1ccc(N=Nc2cc(S(=O)(=O)O)c3ccccc3c2O)c2ccccc12	inactive; negative
Nc1ccc(O)c(N)c1	active; positive
[K+]	inactive; negative
OC[C@H]1O[C@@H](Oc2ccc(O)cc2)[C@H](O)[C@@H](O)[C@@H]1O	inactive; negative
O=S1(=O)CC=CC1	inactive; negative
CC(C)(Cl)[N+](=O)[O-]	active; weakly positive
CC(O)COc1ccccc1 (stereo not drawn)	inactive; negative
Nc1ccc(N=Nc2ccccc2)c(N)n1	active; positive
Cc1ccc2nc(-c3ccc(N)cc3)sc2c1S(=O)(=O)O	active; positive
CC(=O)Nc1cccc(C)c1	inactive; negative
Oc1ccc2cc(SSc3ccc4cc(O)ccc4c3)ccc2c1	inactive; negative

SMILES	outcome
COc1cc(-c2ccc(N=Nc3cc(S(=O)(=O)O)c4ccccc4c3O)c(OC)c2)ccc1N=Nc1cc(S(=O)(=O)O)c2ccccc2c1N	inactive; negative
NC(=NCCCCCCN=C(N)/N=C(\N)Nc1ccc(Cl)cc1)/N=C(\N)Nc1ccc(Cl)cc1	inactive; negative
C[C@H]1CCC[C@H](O)CCCCCc2cc(O)cc(O)c2C(=O)O1	inactive; negative
Nc1nc(N)nc(N)n1	inactive; negative
Nc1ccc([N+](=O)[O-])cc1[N+](=O)[O-]	active; positive
C=C1CC/C=C(\C)CC[C@@H]2[C@@H]1CC2(C)C	inactive; negative
C1COCCN1	inactive; negative
c1ccc2c(c1)CCNC2	inactive; negative
CC1=CC(C)(C)Nc2ccccc21	inactive; negative
[O]=[Mo](=[O])=[O]	inactive; negative
OC(CCl)CCl	active; positive
Oc1ccc2c(c1)OCO2	inactive; negative
CCC(C)(C)C	inactive; negative
CCc1cc(C(N)=S)ccn1	inactive; negative
Nc1ccccc1C(=O)OC1CCCCC1	inactive; negative
Nc1cc(Cl)cc(C(=O)O)c1Cl	active; positive
CC(C)(C)N	inactive; negative
O=C=Nc1ccc(Cc2ccc(N=C=O)cc2)cc1	inactive; negative
CCc1c(Br)c(Br)c(Br)c(Br)c1Br	inactive; negative
CCN(CC)c1ccc(C(=C2C=CC(=[N+](CC)CC)C=C2)c2ccc(S(=O)(=O)O)cc2S(=O)(=O)[O-])cc1	active; positive
O=Cc1ccccc1	inactive; negative
O=c1ccc(O)n[nH]1	active; weakly positive
CN1CCC[C@H]1c1cccnc1	inactive; negative
BrC(Br)C(Br)Br	inactive; negative
Cc1cc(C)c(C)c(C)c1	inactive; negative
O=CC=O	active; positive

SMILES	outcome
Oc1cc(Cl)c(Cl)cc1Cl	inactive; negative
O=C(NO)c1ccccc1	active; positive
CC=CC=O	active; positive
ClC(Cl)C(Cl)(Cl)Cl	inactive; negative
[CH3][Hg+]	inactive; negative
CC(CCl)OC(C)CCl (stereo not drawn)	active; positive
S=C=S	inactive; negative
CCOc1ccc(NC(N)=O)cc1	inactive; negative
COC(=O)c1ccc(C)cc1	inactive; negative
COc1cc(/C=C/C(=O)CC(=O)/C=C/c2ccc(O)c(OC)c2)ccc1O	inactive; negative
COC(=O)c1ccc(C=O)cc1	inactive; negative
N#CCBr	inactive; negative
CCCCOCCCC	inactive; negative
CC(C)NC(C)C	inactive; negative
CCCCCO	inactive; negative
N#CCc1ccccc1	inactive; negative
Nc1ccccc1	inactive; negative
O=[N+]([O-])c1c(O)c(Cl)cc(Cl)c1Cl	inactive; negative
c1ccc2c(c1)Oc1ccccc1S2	inactive; negative
CCOc1ccc(NC(C)=O)cc1	inactive; negative
O=c1cc(O)nc[nH]1	inactive; negative
CC(C)[C@]12CC(=O)[C@H](C)[C@H]1C2	inactive; negative
Cc1ccccc1C(N)=O	inactive; negative
C[C@H]1CCCC(=O)CCC/C=C/c2cc(O)cc(O)c2C(=O)O1	inactive; negative
Nc1cc([N+](=O)[O-])ccc1O	active; positive
CC(=O)CC(C)(C)O	inactive; negative

SMILES	outcome
c1ccc(P(c2ccccc2)c2ccccc2)cc1	inactive; negative
O=C(O)c1ccccc1Cl	inactive; negative
COP(=S)(OC)SCn1nnc2ccccc2c1=O	active; positive
CO/N=C(\C(=O)N[C@@H]1C(=O)N2C(C(=O)O)=C(COC(N)=O)CS[C@H]12)c1ccco1	inactive; negative
OC[C@@H](O)[C@@H](O)[C@H](O)[C@H](O)CO	inactive; negative
Cc1ccc(Nc2ccc(O)c3c2C(=O)c2ccccc2C3=O)cc1	inactive; negative
CC(CC(=O)O)C(=O)O (stereo not drawn)	inactive; negative
CCCCCCC[CH2][Sn]1([CH2]CCCCCCC)[O]C(=O)C=CC(=O)[O]1	inactive; negative
c1ccc(N=NNc2ccccc2)cc1	active; positive
Nc1cc(Cl)c(N)c(Cl)c1	active; positive
O=C(Cl)C(Cl)Cl	active; positive
CCCCCc1cc(O)c2c(c1)OC(C)(C)[C@@H]1CCC(C)=C[C@@H]21	inactive; negative
O=c1c2ccccc2c(=O)c2c1ccc1c2[nH]c2c3c(=O)c4ccccc4c(=O)c3c3[nH]c4c(ccc5c(=O)c6ccccc6c(=O)c54)c3c12	inactive; negative
ClC(Cl)=C(Cl)C(Cl)=C(Cl)Cl	inactive; negative
c1ccccc1	inactive; negative
OCCCCl	active; positive
Brc1ccc(-c2ccccc2)cc1	inactive; negative
O=Cc1c(Cl)cccc1Cl	inactive; negative
Cc1ccc([N+](=O)[O-])cc1C	active; positive
Cc1cc(O)c2c(c1)C(=O)c1cc(O)cc(O)c1C2=O	active; positive
CC(=O)NNC(=O)c1ccccn1	inactive; negative
O=C(O)c1cc(Cl)ccc1Cl	inactive; negative
C=CC1CO1 (stereo not drawn)	active; positive
CC=NO	active; positive
NC(=Nc1ccccc1)Nc1ccccc1	active; weakly positive
O=C(Cl)c1ccccc1[N+](=O)[O-]	active; positive

SMILES	outcome
Oc1cc(Cl)ccc1Cl	inactive; negative
Nc1ccc(S(=O)(=O)c2ccc(N)cc2)cc1	inactive; negative
CC(O)CN(C)C (stereo not drawn)	inactive; negative
Cc1cc(=O)oc2cc(O)cc(O)c12	inactive; negative
CN(C)c1ccc(N=O)cc1	active; positive
CC(C)CCC(C)Nc1ccc(NC(C)CCC(C)C)cc1 (stereo not drawn)	inactive; negative
CCN(Cc1cccc(S(=O)(=O)[O-])c1)c1ccc(C(=C2C=CC(=[N+](C)C)C=C2)c2ccc(N(CC)Cc3cccc(S(=O)(=O)O)c3)cc2)cc1	active; positive
ClCC(Br)CBr (stereo not drawn)	active; positive
O=c1cc(-c2ccc(O)cc2)oc2cc(O)cc(O)c12	inactive; negative
O=C(Cl)c1ccccc1F	active; positive
C=O	active; positive
O=[N+]([O-])c1cccc2c([N+](=O)[O-])cccc12	active; positive
CC(C)[C@@H]1CC[C@@H](C)C[C@@H]1O	inactive; negative
Cc1c(O)cccc1C(=O)N[C@@H](CSc1ccccc1)[C@H](O)CN1C[C@H]2CCCC[C@H]2C[C@H]1C(=O)NC(C)(C)C	inactive; negative
CCCCC(C=O)CC (stereo not drawn)	inactive; negative
CC1CCC(CO)CC1 (stereo not drawn)	inactive; negative
FC(Cl)(Cl)C(F)(Cl)Cl	active; weakly positive
C=C(C)C(=O)OCCCC	inactive; negative
OCC(Cl)CCl (stereo not drawn)	active; positive
C[Si](C)(C)Cl	active; weakly positive
CN(C)CCC(c1ccccc1)c1ccccn1 (stereo not drawn)	inactive; negative
Nc1ccc(-c2ccc(N)cc2S(=O)(=O)O)c(S(=O)(=O)O)c1	inactive; negative
ClC(Cl)(Cl)C(Cl)(Cl)Cl	inactive; negative
COC(=O)CCCC(=O)OC	inactive; negative
